Reference: patent US20110263693A1, “CELASTROL, GEDUNIN, AND DERIVATIVES THEREOF AS HSP90 INHIBITORS” (DANA-FARBER CANCER INSTITUTE, INC., priority 2006, published 2011)

Columns and labels:
[1] = test system: LNCaP cells; assay: Viability screen, luminescent ATP quantitation assay; conditions: 1 nM R1881 plus compound ~20 μM, 3 days
[2] = test system: androgen signaling signature in LNCaP cells; assay: GE-HTS androgen signaling signature assay / screen; conditions: LNCaP; for GE-HTS screen # replicates that score as the androgon deprived state (n = 3): KNN / GE-HTS screen # replicates that score as the androgon deprived state (n = 3): Naïve Bayes classifier (P < 0.05) / GE-HTS screen # replicates that score as the androgon deprived state (n = 3): unweighted summed score (P < 0.05) / GE-HTS screen # replicates that score as the androgon deprived state (n = 3): weighted summed score (P < 0.05): 1 nM R1881 plus compound ~20 μM, 24 hr, count of 3 replicates
[3] = in vitro; conditions: human
[4] = test system: celastrol and gedunin signatures; assay: Connectivity Map query with the celastrol and gedunin signatures (joint); format: cell-based, human; conditions: Connectivity Map profiles, 6 hr
Description: Indeed, a major challenge in cell-based chemical biology and chemical genomics is the identification of compounds' targets (Gardner et al., 2003). We hypothesized that gene expression signatures could be used to identify compound action based on the similarity of such compound-induced signatures to signatures of existing drugs of known mechanism. We therefore employed a collection of gene expression profiles of drug-treated cell lines that was developed in our lab, termed the Connectivity Map (Lamb et al., 2006). This database comprises 453 genome-wide Affymetrix expression profiles derived from the treatment of human cell lines with 164 small molecules, primarily FDA-approved drugs. A 6 hr treatment time was chosen in an attempt to capture the primary, and potentially mechanistic, effects of the compounds rather than the downstream phenotypic consequences.
In order to use the Connectivity Map to gain insight into celastrol and gedunin function, we first defined a gene expression signature of celastrol and gedunin activity. The expression signatures of celastrol and gedunin were derived by expression profiling of RNA from LNCaP cells treated with celastrol (1.25 μM), gedunin (20 μM), and vehicle (DMSO) for 6 hr; signatures were defined using comparative marker selection to identify transcripts that distinguished between the compound- and vehicle-treated profiles by the signal-to-noise (SNR) metric. The enrichment of these signatures in the gene expression profiles of the Connectivity Map database was then assessed using a gene enrichment metric, the connectivity score, based on the Kolmogorov-Smirnov statistic (Lamb et al., 2003).
The celastrol and gedunin signatures were developed from RMA-processed microarray data from LNCaP cells treated with 1.25 μM celastrol or 20 μM gedunin for 6 hours. Comparative marker selection was used to identify markers that distinguished celastrol- and/or gedunin-treated samples from vehicle-treated samples by the median SNR (Golub et al., 1999). […]

[5] = test system: gedunin signature; assay: Connectivity Map query with the gedunin signature; format: cell-based, human; set-up: key to gedunin score (connectivity score): connectivity score, based on Kolmogorov-Smirnov statistic; conditions: for gedunin score (connectivity score): enrichment of the gedunin signature (20 μM gedunin at 6 hours, LNCaP) in the compound's Connectivity Map profiles, 6 hr treatment; for connectivity scores for the gedunin signature: multiple instances, gedunin signature from LNCaP, 6 hours; for gedunin rank: rank by gedunin score among 164 Connectivity Map compounds
In short: (§1)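 LNCaP cells received celastrol 1.25 μM or gedunin 20 μM for 6 h. Each signature was scored by Kolmogorov–Smirnov-based connectivity against 453 build01 profiles, mostly 6 h treatments of MCF7 cells.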

[6] = test system: celastrol signature; assay: Connectivity Map query with the celastrol signature; format: cell-based, human; set-up: key to celastrol score (connectivity score): connectivity score, based on Kolmogorov-Smirnov statistic; conditions: for celastrol score (connectivity score): enrichment of the celastrol signature (1.25 μM celastrol at 6 h, LNCaP) in the compound's Connectivity Map profiles, 6 hr treatment; for celastrol rank: rank by celastrol score among 164 Connectivity Map compounds
In short: as §1

[7] = test system: HSP90 interaction with the cochaperone p23; assay: HSP90 coimmunoprecipitation, p23; format: cell-based; conditions: SKBR-3 cells; celastrol 2.5 μM, 12 hr
Method: Geldanamycin and other HSP90 inhibitors are known to inhibit p23 association with HSP90 (Felts et al., 2003).
SKBR-3 cells were treated with vehicle, celastrol (2.5 μM, 12 hr), and PU24FCI (20 μM, 24 hr) (Vilenchik et al., 2004). Cells were lysed in 20 mM Tris HCl (pH 7.4), 25 mM NaCl, 2 mM DDT, 20 mM Na2MoO4, 0.1% NP-40, and […]. Lysates were incubated for 2 hr at 4° C., rotating, and then centrifuged at 13,000×g for 10 min. Protein (500 μg) was incubated with H9010 anti-HSP90 antibody for 1 hr at 4° C., rotating. Protein G agarose (30 μl; Upstate) was added to each sample, and samples were then incubated for 1 hr at 4° C., rotating. The beads were washed five times with 1 ml lysis buffer. Bound proteins were isolated by boiling in sample buffer. The levels of HSP90 and coimmunoprecipitating proteins were analyzed by western blot.

[8] = target: HSP90α (Homo sapiens, UniProt P07900); assay: Geldanamycin competition assay (Cy3B-geldanamycin fluorescence polarization); format: binding; set-up: purchased Stressgen SPP776 / SPP-776; conditions: celastrol and gedunin at concentrations up to ~100 μM
Method: We first tested whether celastrol or gedunin could compete with Cy3B-geldanamycin for binding to the ATP-binding pocket of purified HSP90α by fluorescence polarization assay (Kim et al., 2004, Llauger-Bufi et al., 2003).
The geldanamycin competition assay was performed as described (He et al., 2006, Kim et al., 2004), except that Cy3B-geldanamycin rather than BODIPY-geldanamycin was used as described herein.
Measurements were taken in black 96-well microtiter plates (Coming #3650). The assay buffer (HFB) contained 20 mM HEPES (K) pH 7.3, 50 mM KCl, 5 mM MgCl2, 20 mM Na2MoO4, 0.01% NP40. Before each use, 0.1 mg/mL bovine gamma globulin (BGG) (Panvera Corporation, Madison, Wis.) and 2 mM DTT (Fisher Biotech, Fair Lawn, N.J.) were freshly added. GM-cy3B was synthesized as previously reported and was dissolved in DMSO to form 10 μM solutions. Cell lysates were prepared rupturing cellular membranes by freezing at −70° C. and dissolving the cellular extract in HFB with added protease and phosphotase inhibitors. Saturation curves were recorded in which GM-cy3B (3 nM) was treated with increasing amounts of cellular lysates.

Compound | viability screen: viability (% [ATP] normalized to R1881-treated control) [1] [%] | GE-HTS screen # replicates that score as the androgon deprived state (n = 3): KNN [2] | GE-HTS screen # replicates that score as the androgon deprived state (n = 3): Naïve Bayes classifier (P < 0.05) [2] | GE-HTS screen # replicates that score as the androgon deprived state (n = 3): unweighted summed score (P < 0.05) [2] | GE-HTS screen # replicates that score as the androgon deprived state (n = 3): weighted summed score (P < 0.05) [2] | also measured
CC(=O)O[C@H]1CC[C@]2(C)C(C[C@@H](OC(C)=O)[C@]3(C)C4=CC(=O)O[C@H](c5ccoc5)[C@@]4(C)CCC23)C1(C)C (stereo partly drawn) [3-deoxo-3beta-acetoxydeoxydihydrogedunin] | 51.0 | 3 | 3 | 3 | 3 | 
dihydrocelastryl diacetate | 50.7 | 2 | 0 | 3 | 0 | 
estrone hemisuccinate [reference compound] | 71.9 | 3 | 3 | 0 | 1 | 
CC1(C)C(=O)C=C[C@]2(C)[C@H]3CC[C@@]4(C)[C@H](c5ccoc5)OC(=O)[C@H]5O[C@]54[C@]3(C)C(=O)C[C@@H]12 [deacetoxy-7-oxogedunin] | 69.0 | 3 | 3 | 3 | 3 | 
CO[C@H]1C[C@H](O[C@@H]2/C(C)=C/C[C@@H]3C[C@@H](C[C@]4(CC[C@H](C)[C@@H](C5CCCCC5)O4)O3)OC(=O)[C@@H]3C=C(C)/C(=N/O)[C@H]4OC/C(=C\C=C\[C@@H]2C)[C@]43O)O[C@@H](C)[C@@H]1O [selamectin] |  |  |  |  |  | viability [3]: 81.1%
C=CCNC1=C2C[C@@H](C)C[C@H](OC)[C@H](O)[C@@H](C)/C=C(\C)[C@H](OC(N)=O)[C@@H](OC)/C=C\C=C(/C)C(=O)NC(=CC1=O)C2=O [17-AAG, 17-allylamino-geldanamycin, reference compound] |  |  |  |  |  | similarity of gene expression profile to the celastrol and gedunin signatures [4]: very strong similarity; gedunin score (connectivity score) [5]: 0.702; connectivity scores for the gedunin signature [5]: High connectivity scores; gedunin rank [5]: 6; effect on the GE-HTS androgen signaling signature outside the screen ([2]; with and without 12 hours androgen pretreatment): suppressed the androgen signaling signature; celastrol score (connectivity score) [6]: 0.736; celastrol rank [6]: 8
CC(C)NCCCn1c(Sc2cc3c(cc2I)OCO3)nc2c(N)ncnc21 [PU-H71, reference compound] |  |  |  |  |  | HSP90 interaction with cochaperone p23 (coimmunoprecipitation) [7]: had the same effect; competition with Cy3B-geldanamycin for binding to the ATP-binding pocket of HSP90α [8]: competed with geldanamycin binding at low concentrations
CCCCCCCCCCCCCCCC[N+](C)(C)C.[Br-] [cetrimonium bromide, reference compound] | 109.7 | 3 | 3 | 0 | 0 | 
CC(=O)O[C@@H]1C[C@H]2C(C)(C)C(=O)C=C[C@]2(C)[C@H]2CC[C@]3(C)C(=CC(=O)O[C@H]3c3ccoc3)[C@@]21C [deoxygedunin] | 63.3 | 2 | 2 | 3 | 3 | 
C[C@@H]1C[C@H]2O[C@@H]2/C=C\C=C\C(=O)Cc2c(Cl)c(O)cc(O)c2C(=O)O1 [monorden, reference compound] |  |  |  |  |  | similarity of gene expression profile to the celastrol and gedunin signatures [4]: very strong similarity; gedunin score (connectivity score) [5]: 0.511; celastrol score (connectivity score) [6]: 0.409
CO[C@H]1/C=C\C=C(/C)C(=O)NC2=CC(=O)C(NCCN(C)C)=C(C[C@@H](C)C[C@H](OC)[C@H](O)[C@@H](C)/C=C(\C)[C@@H]1OC(N)=O)C2=O [17-DMAG, 17-dimethylaminoethylamino-17-demethoxy-geldanamycin, reference compound] |  |  |  |  |  | similarity of gene expression profile to the celastrol and gedunin signatures [4]: very strong similarity; gedunin score (connectivity score) [5]: 0.73; connectivity scores for the gedunin signature [5]: High connectivity scores; gedunin rank [5]: 5; celastrol score (connectivity score) [6]: 0.766; celastrol rank [6]: 6
CC(=O)[C@H]1CC[C@H]2[C@@H]3CC=C4C[C@@H](O)CC[C@]4(C)[C@H]3CC[C@]12C [pregnenolone, reference compound] | 91.5 | 3 | 2 | 0 | 0 | 
